Each structure is given as a SMILES string. Read-outs that look alike come from different tables or passages of the source.

The record followed here is patent US20130345420A9, “SELECTIVE INHIBITORS OF EXCITATORY AMINO ACID TRANSPORTER SUBTYPE 1 (EAAT1/GLAST)” (priority 2008, published 2013).

In data set [1] the target is T1, human EAAT1 (Homo sapiens, UniProt P43003).
T1 construct: expressed in transfected cells
As to the kind of experiment: [3H]-D-Aspartic acid uptake assay, HEK293 cells stably expressing EAAT1. It is filed as cell-based. How it is done: (§1) Table 1: Inhibition of [^3H]-D-Asp uptake in HEK293 cells stably expressing human EAAT1, EAAT2 and EAAT3. The IC50 values are given in μM with pIC50±S.E.M. values in brackets (n=3-7).
(§2) The functional properties of the novel compounds of the invention were assessed in a [^3H]-D-Aspartic acid uptake assay using HEK293 cell lines stably expressing the human EAAT subtypes EAAT1, EAAT2 and EAAT3. Furthermore, some of the compounds were assayed at human EAAT1, EAAT2 and EAAT3 and the rat orthologs GLAST, GLT-1 and EAAC-1 in the FLIPR® Membrane Potential (FMP) Blue assay (Molecular Devices, Crawley, UK).
(§3) FIG. I depicts a graph showing the concentration-inhibition curves for 1o at the human EAAT subtype EAAT1 stably expressed in HEK293 cell lines in a [^3H]-D-aspartic acid uptake assay. The cells (grown in wells of 96-well plates) were washed twice with assay buffer, and incubated with buffer supplemented with 30 nM [^3H]-D-aspartic acid in the absence (control) or presence of increasing concentrations of 1o at […] for 7 min. The assay mixtures were then quickly removed from the wells, and the cells were washed with 3 times with ice-cold buffer, scintillation fluid was added to each well, and the plate was counted in a TopCounter.

Data set [2] can be described thus: Solubility in solvents. In kind it is physicochemical. To be noted: aq buffer solutions (pH=7.4), DMSO and CDCl3.
Data set [3] deals with T2, human EAAT2 (Homo sapiens, UniProt P43004).
T2 construct: expressed in transfected cells
The data set is described as follows: [3H]-D-Aspartic acid uptake assay, HEK293 cells stably expressing EAAT2. In kind it is cell-based. To be noted: n=3-7, read-out: Inhibition of [3H]-D-Asp uptake, EAAT2, IC50. How it is done: as §1, §2, §3

The target in data set [4] is T3, human EAAT3 (Homo sapiens, UniProt P43005).
T3 construct: expressed in transfected cells
T3 sequence (P43005 1-524): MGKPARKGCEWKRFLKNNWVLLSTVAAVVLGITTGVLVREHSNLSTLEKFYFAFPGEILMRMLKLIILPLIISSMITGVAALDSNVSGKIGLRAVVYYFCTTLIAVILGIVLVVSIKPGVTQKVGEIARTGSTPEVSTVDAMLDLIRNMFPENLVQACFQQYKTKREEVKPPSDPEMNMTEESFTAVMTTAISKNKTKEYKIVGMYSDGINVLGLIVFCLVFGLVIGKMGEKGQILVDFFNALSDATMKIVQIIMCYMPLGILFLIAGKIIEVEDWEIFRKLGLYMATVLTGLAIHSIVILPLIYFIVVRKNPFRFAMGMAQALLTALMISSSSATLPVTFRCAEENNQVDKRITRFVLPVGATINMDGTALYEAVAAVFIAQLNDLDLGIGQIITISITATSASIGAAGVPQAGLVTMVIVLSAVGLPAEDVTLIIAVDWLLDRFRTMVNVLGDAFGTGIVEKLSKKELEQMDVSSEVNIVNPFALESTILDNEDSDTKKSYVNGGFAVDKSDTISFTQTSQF
The data set is described as follows: [3H]-D-Aspartic acid uptake assay, HEK293 cells stably expressing EAAT3. In kind it is cell-based. The settings on record: n=3-7, read-out: Inhibition of [3H]-D-Asp uptake, EAAT3, IC50. How it is done: as §1, §2, §3

Setting [5] is: HEK293 cells stably expressing human EAAT1, value in brackets, n=3-7, read-out: Inhibition of [3H]-D-Asp uptake, EAAT1, pIC50±S.E.M. (converted).
Where [6] appears, read: HEK293 cells stably expressing human EAAT1, n=3-7, read-out: Inhibition of [3H]-D-Asp uptake, EAAT1, IC50.
[7] abbreviates: HEK293 cells stably expressing human EAAT1, value in brackets, n=3-7.

T1 sequence (P43003 whole entry): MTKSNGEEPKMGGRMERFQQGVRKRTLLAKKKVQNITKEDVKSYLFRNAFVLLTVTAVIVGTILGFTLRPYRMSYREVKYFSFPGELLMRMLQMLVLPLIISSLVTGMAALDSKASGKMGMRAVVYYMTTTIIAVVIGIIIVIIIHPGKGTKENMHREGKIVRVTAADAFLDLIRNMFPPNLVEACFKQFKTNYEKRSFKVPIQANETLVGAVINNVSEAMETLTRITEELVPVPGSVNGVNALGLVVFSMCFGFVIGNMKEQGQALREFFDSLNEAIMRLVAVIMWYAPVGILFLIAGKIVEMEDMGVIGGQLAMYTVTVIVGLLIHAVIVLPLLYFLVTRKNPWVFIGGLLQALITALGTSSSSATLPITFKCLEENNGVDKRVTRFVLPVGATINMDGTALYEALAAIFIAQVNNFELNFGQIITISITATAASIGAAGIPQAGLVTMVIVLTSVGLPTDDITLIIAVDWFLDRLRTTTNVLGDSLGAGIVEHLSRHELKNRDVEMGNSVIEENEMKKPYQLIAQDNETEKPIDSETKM
T2 sequence (P43004 whole entry): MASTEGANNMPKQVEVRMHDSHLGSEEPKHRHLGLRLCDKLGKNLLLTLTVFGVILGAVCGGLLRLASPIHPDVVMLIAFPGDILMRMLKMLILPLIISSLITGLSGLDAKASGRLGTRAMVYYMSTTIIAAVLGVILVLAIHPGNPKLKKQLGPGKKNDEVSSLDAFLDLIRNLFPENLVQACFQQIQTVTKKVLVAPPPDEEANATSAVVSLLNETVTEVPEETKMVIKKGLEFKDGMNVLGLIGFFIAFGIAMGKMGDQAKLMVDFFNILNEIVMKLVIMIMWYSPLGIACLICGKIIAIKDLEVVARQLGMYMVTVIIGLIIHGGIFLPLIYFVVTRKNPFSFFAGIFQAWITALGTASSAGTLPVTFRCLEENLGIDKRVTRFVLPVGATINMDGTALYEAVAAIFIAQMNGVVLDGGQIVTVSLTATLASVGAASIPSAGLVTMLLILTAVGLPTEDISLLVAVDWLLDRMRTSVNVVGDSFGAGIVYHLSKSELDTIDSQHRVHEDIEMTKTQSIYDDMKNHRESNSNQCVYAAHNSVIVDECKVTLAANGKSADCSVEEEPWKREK

As for `COc1cccc(C2C(C#N)=C(N)OC3=C2C(=O)CC(c2ccccc2)C3)c1OC` (stereo not shown) [1f], the IC50 in data set [1] (setting [5]) is approximately 50.1 µM.

In the case of `CC1C(C#N)=C(N)OC2=C1C(=O)CC(c1cccc3ccccc13)C2` (stereo not shown) [1w, 2-Amino-4-methyl-7-(naphthalene-1-yl)-5-oxo-5,6,7,8-tetrahydro-4H-chromene-3-carbo-nitrile], the “Solubility in comparison with 1o” value in data set [2] was “significantly more soluble”. The IC50 is more than 300 µM in data set [3], 0.58 µM in data set [1] (setting [6]), 0.562 µM in data set [1] (setting [5]) and more than 300 µM in data set [4].

As to `N#CC1=C(N)OC2=C(C(=O)CC(c3ccccc3)C2)C1c1cccnc1` (stereo not shown) [1s], in data set [1] (setting [6]), the IC50 is approximately 30 µM.

The compound `COc1ccc(C2C(C#N)=C(N)OC3=C2C(=O)CC(c2ccco2)C3)cc1OC(=O)N1CCOCC1` (stereo not shown) [1q] registered an IC50 in data set [1] of approximately 100 µM.

As for `COc1ccc(C2C(C#N)=C(N)OC3=C2C(=O)CC(c2ccccc2)C3)cc1` (stereo not shown) [1c, 2-Amino-4-(4-methoxyphenyl)-7-(phenyl)-5-oxo-5,6,7,8-tetrahydro-4H-chromene-3-carbonitrile], the IC50 in data set [1] (setting [6]) stood at 2.3 µM. In addition, the “Inhibition of [3H]-D-Asp uptake, EAAT1, pIC50±S.E.M.” value in data set [1] (setting [7]) is reported as 5.64 ± 0.05.

With `N#CC1=C(N)OC2=C(C(=O)CC(c3ccccc3)C2)C1Cc1ccccc1` (stereo not shown) [1u], the IC50 in data set [1] (setting [6]) was approximately 30 µM.

Compound `COc1ccc(C2C(C#N)=C(N)OC3=C2C(=O)CC(c2ccc(OC)c(OC)c2)C3)cc1` (stereo not shown) [1n, 2-Amino-4-(4-methoxyphenyl)-7-(3,4-dimethoxyphenyl)-5-oxo-5,6,7,8-tetrahydro-4H-chromene-3-carbonitrile] gave a melting point of 159.9 to 161.4 °C. In addition, in data set [3], the IC50 was more than 300 µM. In addition, the IC50 in data set [1] (setting [6]) amounted to 11 µM. Further, in data set [1] (setting [7]), the “Inhibition of [3H]-D-Asp uptake, EAAT1, pIC50±S.E.M.” value was found to be 4.97 ± 0.05. The IC50 in data set [4] is more than 300 µM.
